Counter-ions that a name gives are not always drawn.
The molecules below were run on flexible molecular sensor (DNA) (assay: Flexible (tongs-shaped) molecular sensor in solution, groove binders and polypeptides (FRET ratio)). Conditions: flexible sensor in solution.
Assay type: binding

| Molecule | FRET ratio as a function of compound concentration |
| --- | --- |
| N=C(N)c1ccc(-c2ccc(-c3ccc(C(=N)N)cc3)o2)cc1 [Fourmadine] | concentration-dependent increase of the FRET ratio |
| Cn1cc(NC(=O)c2cc(NC(=O)CN=C(N)N)cn2C)cc1C(=O)NCCC(=N)N [Netrospin] | concentration-dependent increase of the FRET ratio |
| N=C(N)c1ccc(OCCCCCOc2ccc(C(=N)N)cc2)cc1 [Pentamidine] | concentration-dependent increase of the FRET ratio |
| Tri-lysine [Ly-3] | increase the FRET ratio |

Same assay, conditions: flexible sensor, 20 mM MgCl added to solution

| Molecule | FRET ratio as a function of drug concentration, with Mg |
| --- | --- |
| COC1C(O)CC(OC2CC(Oc3cc4cc5c(c(O)c4c(O)c3C)C(=O)[C@@H](OC3CC(OC4CC(OC6CC(C)(O)C(OC(C)=O)C(C)O6)C(O)C(C)O4)C(O)C(C)O3)[C@H]([C@H](OC)C(=O)[C@@H](O)[C@@H](C)O)C5)OC(C)C2OC(C)=O)OC1C (some centres unmarked) [Chromomycin] | FRET ratio increases as a function of drug concentration |
| Mitramycin | FRET ratio increases as a function of drug concentration |

Same assay, conditions: flexible sensor, no Mg

| Molecule | FRET ratio as a function of drug concentration, absence of Mg |
| --- | --- |
| COC1C(O)CC(OC2CC(Oc3cc4cc5c(c(O)c4c(O)c3C)C(=O)[C@@H](OC3CC(OC4CC(OC6CC(C)(O)C(OC(C)=O)C(C)O6)C(O)C(C)O4)C(O)C(C)O3)[C@H]([C@H](OC)C(=O)[C@@H](O)[C@@H](C)O)C5)OC(C)C2OC(C)=O)OC1C (some centres unmarked) [Chromomycin] | no change in the FRET ratio |
| Mitramycin | no change in the FRET ratio |

Each molecule was assayed on double-stranded oligo probe (DNA) (assay: High-throughput screen of a compound library with the linear oligo probe (FRET ratio, 384 well plate)). Conditions: not given.
Assay type: binding
Description: A library of compounds was mixed with the oligo probe in 384 well plate format. (A) The fluorescence spectra of the probe were recorded on a plate reader as in FIG. 21 and the FRET ratio (Cy5/Cy3 intensity) was calculated. […] (B) A library consisting of 1600 compounds from FDA and internationally approved drugs was screened to detect potential intercalators that can be drug repositioning targets.
The molecular sensors were used in vitro according to the following: 1) The sensors were diluted in a NaCl solution (e.g., in a 50-100 mM NaCl solution) and 0.2% BSA solution to a concentration of 1 μM. This can be adjusted depending on the sensitivity of the fluorescence measurement device. 2) The fluorescence spectrum was measured using a fluorescence spectrophotometer, a plate reader, or any other ad-hoc means. […] 3) The molecular species was added to be characterized for DNA binding properties or to be tested for intercalating or groove binding ability. The appropriate sensor is used (e.g., a linear or flexible molecular sensor). The fluorescence spectrum was measured again using the same methods and settings. 4) The FRET ratio was compared for both the sensor alone and sensor plus tested molecule. The FRET ratio is calculated by dividing the peak intensity of the acceptor fluorescence by that of the donor fluorescence.

| Molecule | FRET ratio |
| --- | --- |
| CCCCCCc1ccc(O)cc1O.Nc1c2ccccc2nc2ccccc12 [ACRISORCIN] | 0.2919 |
| CCOP(=S)(OCC)Oc1nc(Cl)c(Cl)cc1Cl [CHLORPYRIFOS] | 0.5126 |
| CC(=O)Oc1cccc2c1C(=O)c1c(OC(C)=O)cc(C(=O)O)cc1C2=O [DIACERIN] | 0.7 |
| CC(=O)Oc1cc2c(cc1OC(C)=O)[C@@H]1c3ccc(OC(C)=O)c(OC(C)=O)c3OC[C@]1(OC(C)=O)C2 [HAEMATOXYLIN PENTAACETATE] | 0.6134 |
| COc1ccc2c3c([nH]c2c1)C(C)=NCC3 [HARMALINE] | 0.646 |
| COc1ccc2c(c1)[nH]c1c(C)nccc12 [HARMINE] | 0.754 |
| Cc1nccc2c1[nH]c1cc(O)ccc12 [HARMOL HYDROCHLORIDE] | 0.3867 |
| CC(C)(C#N)O[C@@H]1O[C@H](CO)[C@@H](O)[C@H](O)[C@H]1O [LINAMARIN] | 0.4228 |
| CC[C@@H](CO)NC(=O)[C@@H]1C=C2c3cccc4c3c(cn4C)C[C@H]2N(C)C1 [METHYSERGIDE MALEATE] | 0.8993 |
| COc1ccc2nc3cc(Cl)ccc3c(Nc3cc(CN4CCCC4)c(O)c(CN4CCCC4)c3)c2n1.O=P(O)(O)O.O=P(O)(O)O.O=P(O)(O)O.O=P(O)(O)O [PYRONARIDINE TETRAPHOSPHATE] | 0.3325 |
| CC[C@@]1(O)C[C@H](O)c2c(cc3c(c2O)C(=O)c2c(O)ccc(O)c2C3=O)[C@H]1C(=O)OC [RUTILANTINONE] | 0.6761 |
| O=c1n(Cl)c(=O)n(Cl)c(=O)n1Cl [SYMCLOSENE] | 0.1489 |
| MODALINE SULFATE | 0.1375 |

Same assay, conditions: linear oligo probe, 384 well plate, Cy5/Cy3 intensity; library peak ˜1.1, a small ratio indicates intercalation

| Molecule | FRET ratio |
| --- | --- |
| CC(C)NCC(O)COc1cccc2ccccc12.Cl (racemic) [PROPRANOLOL HYDROCHLORIDE (+/−)] | 0.9132 |
| COc1ccc(-c2cc(=O)c3ccccc3o2)cc1 [4′-METHOXYFLAVONE] | 0.543 |
| CC(=O)c1ccc2c(c1)N(CCCN(C)C)c1ccccc1S2 [ACEPROMAZINE MALEATE] | 0.8037 |
| COc1cc2nc(N(C)CCCNC(=O)C3CCCO3)nc(N)c2cc1OC (centres unmarked) [ALFUZOSIN HYDROCHLORIDE] | 0.6784 |
| O=C1c2c(O)cccc2C([C@@H]2O[C@H](CO)[C@@H](O)[C@H](O)[C@H]2O)c2cc(CO)cc(O)c21 (some centres unmarked) [ALOIN] | 0.7719 |
| N=C(N)NC(=O)c1nc(Cl)c(N)nc1N [AMILORIDE HYDROCHLORIDE] | 0.7057 |
| Nc1c2ccccc2nc2ccccc12 [AMINACRINE] | 0.2941 |
| CCN(CC)Cc1cc(Nc2ccnc3cc(Cl)ccc23)ccc1O [AMODIAQUINE DIHYDROCHLORIDE] | 0.8333 |
| CN1CCc2cccc3c2[C@H]1Cc1ccc(O)c(O)c1-3 [APOMORPHINE HYDROCHLORIDE] | 0.9228 |
| NC(CO)C(=O)NNCc1ccc(O)c(O)c1O (centres unmarked) [BENSERAZIDE HYDROCHLORIDE] | 0.7832 |
| COc1ccc2cc3[n+](cc2c1OC)CCc1cc2c(cc1-3)OCO2 [BERBERINE CHLORIDE] | 0.4262 |
| Cc1ccc(S(=O)(=O)[N-]Cl)cc1.[Na+] [CHLORAMINE-T] | 0.3985 |
| COc1cc(OC)c2c(=O)cc(-c3ccccc3)oc2c1 [CHRYSIN DIMETHYL ETHER] | 0.8385 |
| N.N.[Cl][Pt][Cl] [CISPLATIN] | 0.6996 |
| Cc1cc(N)c2ccccc2[n+]1CCCCCCCCCC[n+]1c(C)cc(N)c2ccccc21 [DEQUALINIUM CHLORIDE] | 0.6126 |
| COc1cc2nc(N3CCN(C(=O)C4COc5ccccc5O4)CC3)nc(N)c2cc1OC (centres unmarked) [DOXAZOSIN MESYLATE] | 0.8089 |
| CCOc1cc(C=O)ccc1O [ETHYL VANILLIN] | 0.9212 |
| CO/N=C1\CN(c2nc3c(cc2F)c(=O)c(C(=O)O)cn3C2CC2)CC1CN (centres unmarked) [GEMIFLOXACIN MESYLATE] | 0.9051 |
| N=C(N)N/N=C/c1c(Cl)cccc1Cl [GUANABENZ ACETATE] | 0.7731 |
| N=C(N)N [GUANIDINE HYDROCHLORIDE] | 0.451 |
| CCN(CC)CCNc1ccc(CO)c2sc3ccccc3c(=O)c12 [HYCANTHONE] | 0.4566 |

| Molecule | FRET ratio |
| --- | --- |
| CC[C@H]1CN2CC[C@H]1C[C@@H]2[C@@H](O)c1ccnc2ccc(OC)cc12 [HYDROQUINIDINE] | 0.7512 |
| COc1c2occc2c(OC)c2c(=O)cc(C)oc12 [KHELLIN] | 0.7494 |
| COc1c2occc2cc2ccc(=O)oc12 [METHOXSALEN] | 0.9338 |
| NC(N)=NC(=O)c1nc(Cl)c(N2CCCCCC2)nc1N [N,N-HEXAMETHYLENEAMILORIDE] | 0.38 |
| c1ccc2c(CC3=NCCN3)cccc2c1 [NAPHAZOLINE HYDROCHLORIDE] | 0.8789 |
| CCCCC(CC)COC(=O)C(C#N)=C(c1ccccc1)c1ccccc1 (centres unmarked) [OCTOCRYLENE] | 0.9187 |
| Cc1c(-c2cnccn2)ssc1=S [OLTIPRAZ] | 0.7447 |
| COc1cc2c(cc1OC)-c1cc3ccc(OC)c(OC)c3c[n+]1CC2 [PALMATINE CHLORIDE] | 0.5141 |
| OCCN1CCN(CCCN2c3ccccc3Sc3ccc(Cl)cc32)CC1 [PERPHENAZINE] | 0.9495 |
| CC1=CC(=O)c2c(O)cccc2C1=O [PLUMBAGIN] | 0.9364 |
| COc1cc2nc(N3CCN(C(=O)c4ccco4)CC3)nc(N)c2cc1OC [PRAZOSIN HYDROCHLORIDE] | 0.818 |
| COc1cc(NC(C)CCCN)c2ncccc2c1 (centres unmarked) [PRIMAQUINE PHOSPHATE] | 0.8618 |
| CC(=O)[C@H]1CC[C@H]2[C@@H]3CCC4=CC(=O)CC[C@]4(C)[C@H]3CC[C@]12C [PROGESTERONE] | 0.9184 |
| CCN(CC)CCCC(C)Nc1c2ccc(Cl)cc2nc2ccc(OC)cc12 (centres unmarked) [QUINACRINE HYDROCHLORIDE] | 0.2743 |
| C=C[C@H]1C[N@@]2CC[C@H]1C[C@@H]2[C@@H](O)c1ccnc2ccc(OC)cc12 [QUINIDINE GLUCONATE] | 0.9333 |
| C[C@@H]1O[C@@H](O[C@H]2[C@H](Oc3cc(O)c4c(=O)cc(-c5ccc(O)cc5)oc4c3)O[C@H](CO)[C@@H](O)[C@@H]2O)[C@H](O)[C@H](O)[C@H]1O [RHOIFOLIN] | 0.6817 |
| Nc1c2c(nc3ccccc13)CCCC2 [TACRINE HYDROCHLORIDE] | 0.6067 |
| CCN(CC)CCOc1ccc2c(c1)C(=O)c1cc(OCCN(CC)CC)ccc1-2 [TILORONE] | 0.443 |
| CN1[C@@H]2CC[C@H]1C[C@@H](OC(=O)c1c[nH]c3ccccc13)C2 [TROPISETRON HYDROCHLORIDE] | 0.7228 |
| LUPEOL ACETATE | 0.38 |

Source: patent US11242555B2, “Molecular sensors and uses thereof” (New York University, priority 2018, dated 2022)
